Experimental data reported in US5981558A, “DC107 derivatives” (Kyowa Hakko Kogyo Co., Ltd., priority 1996, dated 1999).
Values after ≈ are worked out from the molar mass of the structure shown. Read-outs that look alike come from different tables or passages of the source.

Experiments:
HeLa S3 cells = test: HeLa S3 Cell Growth Inhibition Test; type: cell-based; conditions: Homo sapiens, HeLa S3, 72 h, 72 hours incubation, Neutral Red
Procedure, shortened: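 HeLa S3 cells seeded overnight in MEM with 10% FBS, then exposed to compound for 72 h at 37 °C. Viable cells stained with Neutral Red, dye extracted, absorbance read at 550 nm; IC50 derived against untreated cells.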

[1] = tested on: BS: Bacillus substilis No. 10707; test: Antimicrobial activity by the agar dilution method (MIC); type: cell-based
Protocol: (§1) Antimicrobial activity was determined by the agar dilution method using a culture medium (pH 7) prepared by dissolving 3 g of Bacto-Tryptone (manufactured by Difco, Co.), 3 g of meat extract, 1 g of yeast extract, 1 g of glucose, and 16 g of agar in 1 l of water.

[2] = tested on: KP: Klebisiella pneumoniae ATCC 10031; test: as above; type: cell-based
Protocol: as §1

[3] = tested on: EH: Enterococcus hirae ATCC 10541; test: as above; type: cell-based; conditions: pH 7
Protocol: as §1

[4] = tested on: SA: Staphylococcus aureus ATCC 6538P; test: as above; type: cell-based; conditions: ATCC6538P
Protocol: as §1

[5] = tested on: EC: Escherichia coli ATCC 26; test: as above; type: cell-based
Protocol: as §1

[6] = tested on: Sarcoma 180 mouse solid tumor; test: Antitumor activity against Sarcoma 180 mouse solid tumor; type: in vivo, mouse (ddY); conditions: Sarcoma-180, iv, 168 h
Protocol: To a ddY mouse were intraperitoneally transplanted 5×10^6 sarcoma 180 cells. On the seventh day from the transplant, the cells were collected from the ascites, washed once with sterilized physiological saline, and then diluted with sterilized physiological saline to prepare a cell suspension having a concentration of 5×10^7 cells/mL. This suspension was transplanted in an amount of 0.01 mL to a subcutaneous part of the right axilla of each of male ddY mice each weighing 20±1 g.
A test compound was dissolved in physiological saline containing polyoxyethylene sorbitan monolaurate. At 24 hours after the tumor transplant, 0.2 mL of the solution was intravenously administered to the tail of each of a group of five mice.

tumor = conditions: Japanese Published Unexamined Patent Application No. 112988/89; cited from earlier work
various bacteria = conditions: Japanese Published Unexamined Patent Application No. 112988/89; cited from earlier work
[7] = HeLa S3, read-out: IC50, HeLa S3 cell growth inhibition
[8] = Bacillus substilis No. 10707, agar dilution, pH 7, read-out: minimum inhibitory concentration (MIC), BS
[9] = Klebisiella pneumoniae ATCC 10031, agar dilution, pH 7, read-out: minimum inhibitory concentration (MIC), KP
[10] = Staphylococcus aureus ATCC 6538P, agar dilution, pH 7, read-out: minimum inhibitory concentration (MIC), SA
[11] = ATCC26, Escherichia coli ATCC 26, agar dilution, pH 7, read-out: minimum inhibitory concentration (MIC), EC
[12] = read-out: IC50, HeLa S3 cell growth inhibition, HeLa S3
[13] = Bacillus, pH 7, read-out: minimum inhibitory concentration (MIC), BS
[14] = pH 7, read-out: minimum inhibitory concentration (MIC), KP
[15] = Staphylococcus aureus, pH 7, read-out: minimum inhibitory concentration (MIC), SA
[16] = Escherichia coli, ATCC26, pH 7, read-out: minimum inhibitory concentration (MIC), EC

Structure (SMILES)	IC50 (HeLa S3 cells; [7])	MIC [1, 8]	MIC [2, 9]	minimum inhibitory concentration (MIC), EH [3]	MIC [4, 10]	MIC [5, 11]	IC50 (HeLa S3 cells; [12])	MIC [1, 13]	MIC [2, 14]	MIC [4, 15]	MIC [5, 16]	also measured
COC(=O)NCC(=O)OCSC(=O)C(C)(O)C12CCC(C)=CC(O)C(=O)C=CC=Cc3csc(n3)C(C)N(C(=O)C1)[S+]2[O-] (centres unmarked) [Compound 17]	0.015 µM	0.65 µg/mL (≈ 0.991 µM)	0.65 µg/mL (≈ 0.991 µM)	1.3 µg/mL (≈ 1.98 µM)	0.65 µg/mL (≈ 0.991 µM)	42 µg/mL (≈ 64 µM)						
COCCOCCOCC(=O)OCSC(=O)C(C)(O)C12CCC(C)=CC(O)C(=O)C=CC=Cc3csc(n3)C(C)N(C(=O)C1)[S+]2[O-] (centres unmarked) [Compound 35]	0.022 µM	0.39 µg/mL (≈ 0.556 µM)	0.39 µg/mL (≈ 0.556 µM)	0.39 µg/mL (≈ 0.556 µM)	0.39 µg/mL (≈ 0.556 µM)	13 µg/mL (≈ 18.5 µM)						response vs control in vivo at 2 mg/kg ([6]; 2.0 mg/kg i.v. once, 24 hours after transplant, tumor volume on day 7, read-out: T/C (tumor volume ratio treated/control)): 44%
C/C1=C\C(O)C(=O)/C=C/C=C\c2csc(n2)C(C)N2C(=O)CC(C(C)(O)C(=O)SCOC(=O)CCc3ccc(O)cc3)(CC1)[S+]2[O-] (centres unmarked) [Compound 70]				0.91 µg/mL (≈ 1.32 µM)			0.0026 µM	0.057 µg/mL (≈ 0.0827 µM)	0.91 µg/mL (≈ 1.32 µM)	0.91 µg/mL (≈ 1.32 µM)	29 µg/mL (≈ 42.1 µM)	
COCOCc1oc(=O)oc1CSC(=O)C(C)(O)C12CC/C(C)=C/C(O)C(=O)/C=C/C=C\c3csc(n3)C(C)N(C(=O)C1)[S+]2[O-] (centres unmarked) [Compound 77]	0.0077 µM	0.36 µg/mL (≈ 0.527 µM)	0.36 µg/mL (≈ 0.527 µM)	0.18 µg/mL (≈ 0.264 µM)	0.36 µg/mL (≈ 0.527 µM)	11 µg/mL (≈ 16.1 µM)						response vs control in vivo at 8 mg/kg ([6]; 8.0 mg/kg i.v. once, 24 hours after transplant, tumor volume on day 7, read-out: T/C (tumor volume ratio treated/control)): 36%
C/C1=C\C(OC2CCCCO2)C(=O)/C=C/C=C\c2csc(n2)C(C)N2C(=O)CC(C(C)(O)C(=O)SCc3oc(=O)oc3COC3C[C@@H](O)[C@H](O)[C@@H](CO)O3)(CC1)[S+]2[O-] (some centres unmarked) [Compound 83]				0.59 µg/mL (≈ 0.679 µM)			0.011 µM	0.037 µg/mL (≈ 0.0426 µM)	4.7 µg/mL (≈ 5.41 µM)	0.32 µg/mL (≈ 0.368 µM)	4.7 µg/mL (≈ 5.41 µM)	
C/C1=C\C(O)C(=O)/C=C/C=C\c2csc(n2)C(C)N2C(=O)CC(C(C)(O)C(=O)SCc3oc(=O)oc3CO)(CC1)[S+]2[O-] (centres unmarked) [Compound 86]				0.16 µg/mL (≈ 0.25 µM)			0.61 µM	0.16 µg/mL (≈ 0.25 µM)	0.16 µg/mL (≈ 0.25 µM)	0.33 µg/mL (≈ 0.517 µM)	10 µg/mL (≈ 15.7 µM)	
COCCOCC(=O)OCc1oc(=O)oc1CSC(=O)C(C)(O)C12CC/C(C)=C/C(OC3CCCCO3)C(=O)/C=C/C=C\c3csc(n3)C(C)N(C(=O)C1)[S+]2[O-] (centres unmarked) [Compound 100]	0.018 µM	0.041 µg/mL (≈ 0.0489 µM)	0.65 µg/mL (≈ 0.775 µM)	0.33 µg/mL (≈ 0.393 µM)	0.081 µg/mL (≈ 0.0965 µM)	2.6 µg/mL (≈ 3.1 µM)						response vs control in vivo at 16 mg/kg ([6]; 16 mg/kg i.v. once, 24 hours after transplant, tumor volume on day 7, read-out: T/C (tumor volume ratio treated/control)): 30%
COC(=O)[C@H](CCC(=O)OCSC(=O)C(C)(O)C12CC/C(C)=C/C(O)C(=O)/C=C/C=C\c3csc(n3)C(C)N(C(=O)C1)[S+]2[O-])NC(=O)C1CCC(=O)N1 (some centres unmarked) [Compound 143]				0.29 µg/mL (≈ 0.365 µM)				0.29 µg/mL (≈ 0.365 µM)	0.59 µg/mL (≈ 0.742 µM)	0.29 µg/mL (≈ 0.365 µM)	19 µg/mL (≈ 23.9 µM)	response vs control in vivo at 8 mg/kg ([6]; read-out: T/C (tumor volume ratio treated/control)): 27%
CC1=CC(O)C(=O)C=CC=Cc2csc(n2)C(C)NC(=O)CC2(CC1)[S+]([O-])SC(=O)C2(C)O (centres unmarked) [DC107]												antitumor activity (tumor): antitumor activity; antimicrobial activity (various bacteria): antimicrobial activity against various bacteria
